Test results: PubChem BioAssay AID1354 (Sanford-Burnham Center for Chemical Genomics, 2008)
The source made the active and inactive calls.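 Rule for the calls: active = survival over 30 points above compound-free thapsigargin wells at any thapsigargin dose; inactive = the rest.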

Test system: Jurkat, thapsigargin-induced death, ATPlite luminescence, 24 h
Assay: protection from thapsigargin-induced Jurkat death, Jurkat T-cell leukemia, ATP content luminescence (AID 1354)
Settings: at 25 µM, stronger effect = higher value
[1] = measured here: survival at thapsigargin 10 uM
[2] = measured here: survival at thapsigargin 15 uM

| Compound | survival (thapsigargin 7.5 uM) | survival [1] | survival [2] |
| --- | --- | --- | --- |
| COc1ccc(C2CC(=O)C3=C(C2)Nc2ccccc2NC3c2cccc(C(F)(F)F)c2)cc1OC (stereo not drawn) | 42% (inactive) | 19% | 1% |
| COc1ccc(C2CC(=O)C3=C(C2)Nc2ccccc2NC3c2cccc(Br)c2)cc1OC (stereo not drawn) | 34% (inactive) | 18% | 1% |
| COc1ccc(C2CC(=O)C3=C(C2)Nc2ccccc2NC3c2cccc(Oc3ccccc3)c2)cc1OC (stereo not drawn) | 51% (inactive) | 37% | 7% |
| CCCOc1ccc(C2Nc3ccccc3NC3=C2C(=O)CC(c2ccc(OC)c(OC)c2)C3)cc1 (stereo not drawn) | 44% (inactive) | 17% | 1% |
| COc1ccc(C2CC(=O)C3=C(C2)Nc2ccccc2NC3c2cc(C)ccc2C)cc1 (stereo not drawn) | 54% (inactive) | 37% | 2% |
| CC1(C)CC(=O)C2=C(C1)Nc1ccccc1NC2c1ccc(-c2ccccc2)cc1 (stereo not drawn) | 14% (inactive) | 3% | 0% |
| O=C1CC(c2ccccc2)CC2=C1C(c1c(F)cccc1Cl)Nc1ccccc1N2 (stereo not drawn) | 39% (inactive) | 23% | 1% |
| COc1ccc(C2CC(=O)C3=C(C2)Nc2ccccc2NC3c2ccccc2C(F)(F)F)cc1OC (stereo not drawn) | 44% (inactive) | 32% | 2% |
| CCOc1cc(C2Nc3ccccc3NC3=C2C(=O)CC(c2ccc(OC)cc2)C3)cc(Cl)c1O (stereo not drawn) | 55% (inactive) | 35% | 2% |
| CSc1ccc(C2Nc3ccccc3NC3=C2C(=O)CC(c2ccccc2)C3)cc1 (stereo not drawn) | 44% (inactive) | 23% | 4% |
| CCOc1cccc(C2Nc3ccccc3NC3=C2C(=O)CC(c2ccc(OC)cc2)C3)c1 (stereo not drawn) | 46% (inactive) | 32% | 1% |
